This data set deals with Hepa-1C1C7 hepatocyte cells. The data set can be described thus: Survival of pyrogallol-treated hepatocytes, NRU assay. It is filed as cell-based. Particulars: 500µM pyrogallol alone; 3 hours; compared to pyrogallol-untreated control. The procedure:
Inflammatory liver disease is a condition where the liver cannot perform its normal functions due to liver damage, metabolic disorders, and accumulation of toxic substances. The present inventors sought to verify the therapeutic effect of the cerium oxide nanocomplex of the present invention on inflammatory liver disease. To induce the disease, Hepa-1C1C7 hepatocyte cells were treated with 500µM pyrogallol, a cytotoxic substance, to induce acute inflammatory liver disease. Simultaneously, the cells were treated with the cerium oxide nanocomplex of the present invention at concentrations ranging from 0.01 to 5µM. Three hours after treatment, the survival rate of Hepa-lclc7 cells was measured using the NRU assay, a biochemical analysis method that measures cell survival by allowing the neutral red dye to be absorbed by living cells. […] When treated with the cerium oxide nanocomplex of the present invention, survival rates of 74.55% at a minimum concentration of 0.01 µM and approximately 93.19% at a maximum concentration of 5µM were observed. This represents an increase in survival rate of at least 47.81% to a maximum of 84.78% compared to cells treated with pyrogallol alone (FIG. 13).

Consider `Oc1cccc(O)c1O` [pyrogallol], for which the “survival rate of cells” value is listed as “approximately 50.43%”.
